The values below come from paper PMC5708526, “Targeting secondary protein complexes in drug discovery: studying the druggability and chemical biology of the HSP70/BAG1 complex” (Chemical Communications (Cambridge, England), 2017).

The target in one test is T1, HSP72/BAG1 complex (Homo sapiens, UniProt P0DMV8).
T1 construct: purchased Enzo Life Sciences (BAG-1M only)
Put plainly: FP competition assay, displacement of bisaryl-ATTO-488 11 from secondary HSP72/BAG1 complex. The class given is binding. The note with it: for change in affinity for HSP72/BAG1 complex compared to primary protein: 700 nM BAG1. How it is done: (§1) To assess what effect the secondary HSP72/BAG1 complex had on the apparent affinity of the non-nucleotide bisaryl-ATTO-488 FP-probe 11, we carried out a similar BAG1 study. […] To confirm that the binding of BAG1 to HSP72 was not mutually exclusive, we screened the nucleotides ADP and ATP in a competition assay with bisaryl-ATTO-488 11 and HSP72 at a 50% bound fraction, with and without a saturating concentration of BAG1 (700 nM) (Fig. S7, ESI ^†). […]
(§2) Compound screen with and without BAG-1: Compounds (0.2 μL at 50 x screening concentration in DMSO) were dispensed using an ECHO 550 Liquid Handler (Labcyte Inc.). To the corresponding wells was added, 5 μL of probe molecule (20 nM in assay buffer), 2.5 μL of HSP72 (four times final concentration in assay buffer) and either 2.5 µL of BAG-1 (2.8 µM in 20 mM TRIS base pH 7.4, 100 mM NaCl, 1 mM DTT, 1% (v/v) glycerol) or 2.5 µL of BAG1 replacement buffer (20 mM TRIS base pH 7.4, 100 mM NaCl, 1 mM DTT, 1% (v/v) glycerol). The assay was performed in duplicate. Tracer controls (10 nM probe molecule only) and bound tracer controls (10 nM probe in the presence of appropriate protein concentration) were included on each assay plate.
IC50 determination was performed using non-linear least squares curve fitting (GraphPad Prism 6, log(inhibitor) vs. response— variable slope (four parameters)). […]
Fig. S8. Representative competitive binding curves for ADP (A), ATP (B), compound 12 (C) and compound 13 (D) in the presence and absence of BAG1. Competition experiments in the presence of BAG1 (red) were performed using 10 nM biaryl-ATTO-488, 700 nM BAG1 and 140 nM HSP70 to give a 50% bound fraction. Competition experiments in the absence of BAG1 (blue) were performed using 10 nM biaryl-ATTO-488 and 180 nM HSP70 to give a 50% bound fraction. IC50 determination was performed using non-linear regression analysis (log(inhibitor) vs. response - Variable slope (four parameters)), all data points were tested in duplicate and are represented as the arithmetic mean ± SEM.

Test [1] addresses T2, HSP72 (Homo sapiens, UniProt P0DMV8).
T2 construct: made in house
The test can be described thus: FP competition assay, displacement of bisaryl-ATTO-488 11 from primary HSP72 protein. The format is binding. How it is done:
as §1
(§3) TRIS Tris(hydroxymethyl)aminomethane
(§4) General Information: Unless otherwise stated the aqueous assay buffer contained 50 mM TRIS base pH 7.4, 150 mM NaCl, 6 mM MgCl2, 1 mM DTT, 0.1% (wt/wt) CHAPS. The assay was conducted using 384 Plus F ProxiPlates (PerkinElmer) with a final assay volume of 10 μL. Plates were centrifuged at 1000 rpm for 1 minute prior to incubation and read using an 2103 Envision Multilable Plate Reader. Excitation and emission wavelengths used for green probes were 480 nm and 535 nm, respectively.
Fluorescence polarisation was measured in units of millipolarization (mP). All experiments were performed in triplicate, unless otherwise stated. Data were plotted and analysed using GraphPad Prism 6, graphical data represents the mean ± standard error of the mean for a single representative experiment. ATP-derived fluorescent probes (1.0 mM in aqueous) were purchased from Jena Bioscience. Human BAG-1M (10.9 μM in 20 mM TRIS base pH 7.4, 100 mM NaCl, 1 mM DTT, 1% (v/v) glycerol) was purchased from Enzo Life Sciences. […]
Compound IC50 determination: Compounds (0.2 μL at 50 x screening concentration in DMSO) were dispensed using an ECHO 550 Liquid Handler (Labcyte Inc.). To the corresponding wells was added, 5 μL of probe molecule (20 nM in assay buffer) and 5 μL of protein (two times their final concentration in assay buffer) to give a 50% bound fraction. Tracer controls (10 nM probe molecule only) and bound tracer controls (10 nM probe in the presence of appropriate protein concentration) were included on each assay plate. IC50 determination was performed using non-linear least squares curve fitting (GraphPad Prism 6, log(inhibitor) vs. response— variable slope (four parameters)). […]
as §2
IC50 determination was performed using non-linear least squares curve fitting (GraphPad Prism 6, log(inhibitor) vs. response— variable slope (four parameters)).
Fig. S1. Determination of assay binding window for bisaryl-ATTO-488 and ATP-ATTO-488. Polarisation values (mP) for 2-63 nM ATP-ATTO-488 (red) and bisaryl ATTO-488 (blue) in the presence (▼) and absence (▲) of 5 µM HSP72, ↔ represents the assay window at 10 nM probe concentration. All data points were tested in triplicate and are represented as the arithmetic mean ±

The target of a further test is HSP72-NBD. Further details: method as in PMID 19256508. The note with it: reported affinity for HSP72-NBD by surface-plasmon resonance; cited from earlier work.
Test [2] has as its target T2, HSP72. Put plainly: FP assay binding window and Z' determination.
From the text: As a result, the assay was not statistically robust, so could not be used in competition experiments (Z′ = 0.36).[11],[20],[21] We hypothesised that the high lipophilicity of 10 (clog P = 6.9) was causing the small binding window, either due to aggregation, even at very low concentrations, or its large hydrate volume.[22] Because the lipophilicity of the specific-ligand portion of the probe was fixed by the need for high affinity to the HSP70 target, we focused on changes to the solvent exposed fluorophore. ATTO-488, a green-shifted fluorophore that contains two sulfonic acid groups, was selected as an alternative to fluorescein (see ESI ^†), as this reduced the clog P of the bisaryl probe 11 to –3.9.[21] The binding window of ATTO-488 bisaryl FP-probe 11 measured at a fixed and apparently saturating concentration of HSP72 (5 μM), was now greater than 150 mP (Z′ = 0.63, Fig. 3A and Fig. S1, ESI ^†). […]
as §3, §4
Fluorescence polarisation was measured in units of millipolarization (mP). All experiments were performed in triplicate, unless otherwise stated. Data were plotted and analysed using GraphPad Prism 6, graphical data represents the mean ± standard error of the mean for a single representative experiment. ATP-derived fluorescent probes (1.0 mM in aqueous) were purchased from Jena Bioscience. Human BAG-1M (10.9 μM in 20 mM TRIS base pH 7.4, 100 mM NaCl, 1 mM DTT, 1% (v/v) glycerol) was purchased from Enzo Life Sciences.
Determination of optimal probe concentration: To each well, 5 μL of HSP72 (10 µM in assay buffer) or 5 μL assay buffer and increasing concentrations of probe (5 μL, two-fold dilution series) were added. Fluorescence polarisation values for the tracer ± protein were plotted using GraphPad prism 6. […]
Z’ determination: To each well, 5 µL of probe (20 nM in assay buffer) and either 5 µL of HSP70 (in assay buffer) or 5 µL of assay buffer were added. Fluorescent polarisation values from 96 wells were used to calculate the mean and standard deviation for each data set. Z’-factors were calculated using the equation given below (sample refers to probe in the absence of protein and control refers to probe in the presence of protein). […]

The mark [3] stands for this setting: 700 nM BAG1, 140 nM HSP72, 10 nM probe 11, 16 h incubation, geometric mean of at least 3 experiments, read-out: IC50 +BAG1.
Where [4] appears, read: 180 nM HSP72, 10 nM probe 11, BAG1 buffer, 16 h incubation, geometric mean of at least 3 experiments, read-out: IC50 –BAG1.

Molecules are shown by their SMILES. Like-named read-outs stand apart in the source and are kept apart here.

What is called pIC50 is the IC50 on a negative log10 scale, so that one unit is a factor of ten. The Kd is a measure of binding affinity in units of concentration.

T1 sequence (P0DMV8 whole entry): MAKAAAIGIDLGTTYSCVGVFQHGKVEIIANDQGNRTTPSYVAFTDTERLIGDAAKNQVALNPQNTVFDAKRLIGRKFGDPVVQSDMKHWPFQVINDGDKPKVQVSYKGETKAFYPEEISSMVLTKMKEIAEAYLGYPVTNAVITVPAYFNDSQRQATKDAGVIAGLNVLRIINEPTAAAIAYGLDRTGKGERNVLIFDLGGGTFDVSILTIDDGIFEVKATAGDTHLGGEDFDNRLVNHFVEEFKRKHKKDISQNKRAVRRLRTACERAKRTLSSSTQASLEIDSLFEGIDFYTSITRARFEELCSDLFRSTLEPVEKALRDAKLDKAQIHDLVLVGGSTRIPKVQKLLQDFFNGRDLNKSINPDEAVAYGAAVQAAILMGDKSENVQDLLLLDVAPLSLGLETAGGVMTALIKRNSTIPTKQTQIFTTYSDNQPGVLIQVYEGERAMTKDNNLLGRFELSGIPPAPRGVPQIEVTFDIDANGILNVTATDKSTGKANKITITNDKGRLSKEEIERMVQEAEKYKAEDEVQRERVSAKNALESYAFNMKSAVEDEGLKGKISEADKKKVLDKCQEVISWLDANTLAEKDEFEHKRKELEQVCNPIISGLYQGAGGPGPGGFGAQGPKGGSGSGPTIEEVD
T1 sequence (Q99933 72-345 partner limits assumed): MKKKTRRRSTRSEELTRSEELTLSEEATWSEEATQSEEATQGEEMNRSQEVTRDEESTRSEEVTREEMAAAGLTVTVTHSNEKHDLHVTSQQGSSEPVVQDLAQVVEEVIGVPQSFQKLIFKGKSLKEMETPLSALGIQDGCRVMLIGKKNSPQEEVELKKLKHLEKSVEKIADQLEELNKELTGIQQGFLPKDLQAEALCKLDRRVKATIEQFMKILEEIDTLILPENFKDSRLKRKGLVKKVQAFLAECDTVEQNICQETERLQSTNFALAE
T2 sequence (P0DMV8 whole entry): as the sequence (P0DMV8 whole entry) above

With `Nc1ncnc2c1ncn2[C@@H]1O[C@H](COP(=O)(O)OP(=O)(O)O)[C@@H](O)[C@H]1O` [ADP], the results for the IC50 on HSP72/BAG1 complex (setting [3]) and at HSP72 [1] (setting [4]) were 2.2 µM and 0.33 µM, respectively. The pIC50 on HSP72/BAG1 complex (700 nM BAG1, n = 3) is 5.66 ± 0.04. Besides, the “decrease in affinity for the secondary complex compared to primary HSP72” value at HSP72/BAG1 complex (700 nM BAG1 vs without BAG1) is on record as 6.8 fold.
As for `Nc1ncnc2c1ncn2[C@@H]1O[C@H](COP(=O)(O)OP(=O)(O)OP(=O)(O)O)[C@@H](O)[C@H]1O` [ATP], the IC50 was more than 10 µM at HSP72/BAG1 complex (setting [3]) and 0.65 µM at HSP72 [1] (setting [4]).
Turning to `Nc1ncnc2c1nc(NCc1ccc3ncccc3c1)n2[C@@H]1O[C@H](COCc2ccc(C(F)(F)F)cc2)[C@@H](O)[C@H]1O` [compound 2], on HSP72-NBD, the Kd is 0.06 µM. The IC50 on HSP72 [1] (competition with FP-probe 11, HSP72, n = 3, read-out: pIC50 (converted)) was 0.135 µM; on HSP72 [1] (competition with FP-probe 11, HSP72, read-out: IC50), 0.137 µM.
Turning to `O=C(NCCCCCCNc1ncnc2c1nc(NCc1ccc3ncccc3c1)n2[C@@H]1O[C@H](COCc2ccc(C(F)(F)F)cc2)[C@@H](O)[C@H]1O)c1ccc(C(=O)O)c(-c2c3ccc(=O)cc-3oc3cc(O)ccc23)c1` [compound 10], the “Z'” value on HSP72 [2] (FP assay with HSP72) was 0.36. On HSP72 [2] (presence vs absence of 5 μM HSP72), the “assay (binding) window” value is approximately 30 mP.
As to `Nc1ncnc2c1nc(NCc1ccc3ncccc3c1)n2[C@@H]1O[C@H](CO)[C@@H](O)[C@H]1O` [compound 12], on HSP72/BAG1 complex, the “change in affinity for HSP72/BAG1 complex compared to primary protein” value is listed as “no significant change”. Further, the IC50 at HSP72/BAG1 complex (setting [3]) and at HSP72 [1] (setting [4]) was 2 µM each time.
For `NC(=O)c1cn([C@@H]2O[C@H](CO)[C@@H](O)[C@H]2O)c2ncnc(N)c12` [compound 13, sangivamycin], at HSP72/BAG1 complex, the IC50 was 1 µM and the “change in affinity for HSP72/BAG1 complex compared to primary protein” value was “no significant change”. Moreover, the IC50 at HSP72 [1] worked out at 2.4 µM.
